According to patent US8153645B2, “Treating pain using selective antagonists of persistent sodium current” (Allergan, Inc., priority 2003, dated 2012):

What was measured:
[1] = system: tactile allodynia; test: Spinal nerve ligation (Chung) model of neuropathic pain, tactile allodynia by von Frey hairs; format: in vivo; conditions: rat, 10 mg/kg i.p., 30 minutes after dosing, FIG. 6
Procedure: Paw withdrawal threshold (gram force) was determined using von Frey filament stimulation and the Dixon's up-down method. Allodynic response was measured at baseline (0 min) and at 15, 30, 60 and 120 min after of 10 mg/kg IP injection of Compound 1 or vehicle control. Percent reversal of allodynia compared with non-injected rats was calculated. Six rats were used at each dose. Data were analyzed by analysis of variance and Dunnett's test reversal of allodynia was considered significant if P<0.05
Compound 1 was tested in a rodent model of neuropathic pain known to be predictive of clinical activity, see, e.g., Kim & Chung, supra, (1992). Following ligation of two spinal nerves, the animals developed sensitivity to normally non-painful stimuli such as touch. The ability of Compound 1 to reverse this sensitivity, called allodynia, was tested 30 minutes after dosing by intraperitoneal administration.
The animal model used involved the surgical ligation of the L5 (and optionally the L6) spinal nerves on one side in experimental animals. […]
Tactile allodynia was measured prior to and 30 minutes after drug administration using von Frey hairs, which are a series of fine hairs with incremental differences in stiffness. […] The applied force has been calculated to range from 0.41 to 15.1 grams. […]

[2] = biological target: T1, Nav1.3 sodium channel (Homo sapiens, UniProt Q9NY46)
T1 sequence (Q9NY46 whole entry): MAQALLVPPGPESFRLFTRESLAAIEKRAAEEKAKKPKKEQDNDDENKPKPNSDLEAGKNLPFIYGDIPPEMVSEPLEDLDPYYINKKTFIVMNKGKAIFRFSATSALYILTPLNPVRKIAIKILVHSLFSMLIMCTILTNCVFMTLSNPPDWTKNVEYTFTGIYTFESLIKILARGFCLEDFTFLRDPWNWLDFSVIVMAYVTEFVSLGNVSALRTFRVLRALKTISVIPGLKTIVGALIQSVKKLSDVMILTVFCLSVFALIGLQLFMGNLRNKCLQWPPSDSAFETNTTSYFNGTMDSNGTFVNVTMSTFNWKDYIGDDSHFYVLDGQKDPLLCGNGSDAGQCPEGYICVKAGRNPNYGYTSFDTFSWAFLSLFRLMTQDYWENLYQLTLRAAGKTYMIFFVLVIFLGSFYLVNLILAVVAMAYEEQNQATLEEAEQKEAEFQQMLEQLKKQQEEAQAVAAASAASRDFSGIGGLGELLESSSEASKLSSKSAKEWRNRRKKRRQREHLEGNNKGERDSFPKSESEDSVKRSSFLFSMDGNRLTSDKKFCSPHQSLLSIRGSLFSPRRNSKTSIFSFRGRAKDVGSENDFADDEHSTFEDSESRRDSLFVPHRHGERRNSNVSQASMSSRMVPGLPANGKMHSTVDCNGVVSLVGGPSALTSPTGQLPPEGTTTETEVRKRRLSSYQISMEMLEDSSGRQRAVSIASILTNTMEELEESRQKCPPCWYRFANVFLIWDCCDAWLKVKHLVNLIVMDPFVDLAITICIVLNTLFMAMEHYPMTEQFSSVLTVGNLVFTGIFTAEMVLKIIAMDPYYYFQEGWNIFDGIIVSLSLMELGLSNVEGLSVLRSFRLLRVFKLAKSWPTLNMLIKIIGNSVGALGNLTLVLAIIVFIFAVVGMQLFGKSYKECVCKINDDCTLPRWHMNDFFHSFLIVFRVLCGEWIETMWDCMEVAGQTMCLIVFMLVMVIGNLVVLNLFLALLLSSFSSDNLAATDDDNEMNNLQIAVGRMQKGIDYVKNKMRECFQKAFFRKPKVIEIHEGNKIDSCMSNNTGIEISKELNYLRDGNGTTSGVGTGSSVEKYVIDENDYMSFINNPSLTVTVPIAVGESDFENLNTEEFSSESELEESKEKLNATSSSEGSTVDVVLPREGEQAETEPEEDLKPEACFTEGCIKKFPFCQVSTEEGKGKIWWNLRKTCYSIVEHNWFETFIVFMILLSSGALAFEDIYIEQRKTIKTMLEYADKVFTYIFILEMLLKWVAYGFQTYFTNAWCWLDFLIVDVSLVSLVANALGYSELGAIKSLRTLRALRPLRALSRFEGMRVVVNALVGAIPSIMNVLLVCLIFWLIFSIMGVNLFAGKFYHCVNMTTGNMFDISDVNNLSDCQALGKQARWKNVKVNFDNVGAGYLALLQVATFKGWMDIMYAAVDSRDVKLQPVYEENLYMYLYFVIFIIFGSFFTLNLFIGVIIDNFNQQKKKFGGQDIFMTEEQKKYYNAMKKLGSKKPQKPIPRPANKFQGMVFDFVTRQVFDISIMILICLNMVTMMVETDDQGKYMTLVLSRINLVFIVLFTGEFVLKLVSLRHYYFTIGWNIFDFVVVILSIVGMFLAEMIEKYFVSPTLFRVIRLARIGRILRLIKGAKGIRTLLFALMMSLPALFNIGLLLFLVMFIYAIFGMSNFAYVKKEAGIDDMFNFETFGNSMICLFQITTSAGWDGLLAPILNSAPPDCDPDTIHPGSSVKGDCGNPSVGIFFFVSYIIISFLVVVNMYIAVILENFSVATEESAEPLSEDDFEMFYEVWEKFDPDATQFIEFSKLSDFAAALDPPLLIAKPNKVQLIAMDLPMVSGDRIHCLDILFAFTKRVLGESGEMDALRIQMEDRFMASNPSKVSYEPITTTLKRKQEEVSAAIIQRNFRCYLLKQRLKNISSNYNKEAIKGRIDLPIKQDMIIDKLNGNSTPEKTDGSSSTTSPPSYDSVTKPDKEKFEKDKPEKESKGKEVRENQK

[3] = biological target: T1, Nav1.3 sodium channel; test: High-throughput persistent sodium current assay (VIPR, FRET dyes): Na+-dependent depolarization of HEK-Nav1.3 cells; format: cell-based; design: expressed in transfected cells; host or cells: HEK-293 (human embryonic kidney) cells, G418-selected (HEK-Nav1.3); conditions: 10 μM tetracaine, HEK-Nav1.3, FIG. 2
[4] = 3 μM, 200 msec pulse to 0 mV from -90 mV, FIG. 4

## O=C(NCCCCc1ccccc1)c1cccs1 [Compound 1, thiophene-2-carboxylic acid (4-phenyl-butyl)-amide]
[1]
  Reduction in allodynia with respect to a vehicle control: 80%
[2]; [4]
  Block of persistent current: 99%
  Reduction of transient current: 16%
[2]; Hill equation fit, FIG. 5
  Hillslope, persistent current (Ip): 0.733
  Hillslope, transient Na+ current (It): 0.354

## CCCCNc1ccc(C(=O)OCCN(C)C)cc1 [Tetracaine, tetracaine]
[3]
  Inhibition of Na+-dependent change in Rf/Ri (depolarization): inhibited
